Data: patent US9580416B2, “Inhibitors of Bruton's tyrosine kinase” (PHARMACYCLICS LLC, priority 2014, dated 2017)

What was measured:
Type in all cases: biochemical
Btk = Btk (Homo sapiens, UniProt Q06187); experiment: Btk kinase activity, TR-FRET assay; conditions: read-out: Btk (IC50)
Description: (§1) Btk kinase activity is determined using a time-resolved fluorescence resonance energy transfer (TR-FRET) methodology. Measurements are performed in a reaction volume of 50 μL using 96-well assay plates. Kinase enzyme, inhibitor, ATP (at the Km for the kinase), and 1 […] (Biotin-AVLESEEELYSSARQ-NH2) are incubated in a reaction buffer composed of 20 mM Tris, 50 mM NaCl, MgCl2 (5-25 mM depending on the kinase), MnCl2 (0-10 mM), 1 mM DTT, 0.1 mM EDTA, 0.01% bovine serum albumin, 0.005% Tween-20, and 10% DMSO at pH 7.4 for one hour. The reaction is quenched by the addition of 1.2 equivalents of EDTA (relative to divalent cation) in 25 μL of 1× Lance buffer (Perkin-Elmer). Streptavidin-APC (Perkin-Elmer) and Eu-labeled p-Tyr100 antibody (Perkin-Elmer) in 1× Lance buffer are added in a 25 μL volume to give final concentrations of 100 nM and 2.5 nM, respectively, and the mixture is allowed to incubate for one hour. The TR-FRET signal is measured on a multimode plate reader with an excitation wavelength (λEx) of 330 nm and detection wavelengths (λEm) of 615 and 665 nm. Activity is determined by the ratio of the fluorescence at 665 nm to that at 615 nm. For each compound, enzyme activity is measured at various concentrations of compound. Negative control reactions are performed in the absence of inhibitor in replicates of six, and two no-enzyme controls are used to determine baseline fluorescence levels. Inhibition constants, Ki(app), ware obtained using the program BatchKi (Kuzmic et al. (2000), Anal. Biochem. 286:45-50). IC50s are obtained according to the equation: IC50={Ki(app)/(1+[ATP]/Km^ATP)}+[E]total/2;
(§2) For all kinases, [ATP]=Km^ATP, [Btk]total=0.5 nM and [Lck]total=6 nM.

EGFR = EGFR (Homo sapiens, UniProt P00533); experiment: Inhibition of a panel of kinases, in vitro HotSpot kinase assay: EGFR
EGFR, sequence (P00533 25-1210): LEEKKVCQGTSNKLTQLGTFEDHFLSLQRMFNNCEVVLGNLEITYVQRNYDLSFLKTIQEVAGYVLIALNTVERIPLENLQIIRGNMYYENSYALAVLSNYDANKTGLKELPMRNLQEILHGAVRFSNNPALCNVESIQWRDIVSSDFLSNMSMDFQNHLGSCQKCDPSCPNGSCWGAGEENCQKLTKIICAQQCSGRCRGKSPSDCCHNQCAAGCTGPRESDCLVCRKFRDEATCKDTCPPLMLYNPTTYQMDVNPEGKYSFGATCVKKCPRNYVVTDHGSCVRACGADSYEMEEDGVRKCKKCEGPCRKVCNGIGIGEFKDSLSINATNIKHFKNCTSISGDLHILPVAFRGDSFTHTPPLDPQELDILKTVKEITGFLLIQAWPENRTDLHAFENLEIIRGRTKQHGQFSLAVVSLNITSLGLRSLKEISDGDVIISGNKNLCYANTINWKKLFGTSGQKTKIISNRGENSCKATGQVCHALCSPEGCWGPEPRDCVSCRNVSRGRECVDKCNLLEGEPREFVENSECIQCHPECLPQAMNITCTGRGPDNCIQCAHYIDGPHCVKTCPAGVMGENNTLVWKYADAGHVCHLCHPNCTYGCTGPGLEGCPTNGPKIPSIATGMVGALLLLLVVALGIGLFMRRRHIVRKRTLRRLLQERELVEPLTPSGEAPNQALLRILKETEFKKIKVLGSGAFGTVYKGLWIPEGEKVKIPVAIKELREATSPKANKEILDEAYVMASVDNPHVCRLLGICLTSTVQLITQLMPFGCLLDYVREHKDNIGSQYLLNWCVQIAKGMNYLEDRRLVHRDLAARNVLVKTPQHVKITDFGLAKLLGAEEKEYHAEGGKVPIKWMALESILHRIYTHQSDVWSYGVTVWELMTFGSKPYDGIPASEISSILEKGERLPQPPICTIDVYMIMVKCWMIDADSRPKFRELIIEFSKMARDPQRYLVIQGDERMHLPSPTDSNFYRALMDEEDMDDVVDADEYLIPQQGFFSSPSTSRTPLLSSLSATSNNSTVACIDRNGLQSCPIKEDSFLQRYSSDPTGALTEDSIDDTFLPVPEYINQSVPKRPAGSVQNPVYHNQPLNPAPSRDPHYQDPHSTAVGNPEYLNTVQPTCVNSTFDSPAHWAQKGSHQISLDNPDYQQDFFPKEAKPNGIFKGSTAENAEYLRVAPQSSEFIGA
Description: The degree of inhibition of a panel of kinases is determined using the in vitro HotSpot kinase assay (purified enzymes, ^33P-ATP, an appropriate substrate and 1 uM ATP).

Lck = Lck (Homo sapiens, UniProt P06239); experiment: Lck kinase activity, TR-FRET assay; conditions: read-out: LCK (IC50)
Lck, sequence (P06239 whole entry, species assumed): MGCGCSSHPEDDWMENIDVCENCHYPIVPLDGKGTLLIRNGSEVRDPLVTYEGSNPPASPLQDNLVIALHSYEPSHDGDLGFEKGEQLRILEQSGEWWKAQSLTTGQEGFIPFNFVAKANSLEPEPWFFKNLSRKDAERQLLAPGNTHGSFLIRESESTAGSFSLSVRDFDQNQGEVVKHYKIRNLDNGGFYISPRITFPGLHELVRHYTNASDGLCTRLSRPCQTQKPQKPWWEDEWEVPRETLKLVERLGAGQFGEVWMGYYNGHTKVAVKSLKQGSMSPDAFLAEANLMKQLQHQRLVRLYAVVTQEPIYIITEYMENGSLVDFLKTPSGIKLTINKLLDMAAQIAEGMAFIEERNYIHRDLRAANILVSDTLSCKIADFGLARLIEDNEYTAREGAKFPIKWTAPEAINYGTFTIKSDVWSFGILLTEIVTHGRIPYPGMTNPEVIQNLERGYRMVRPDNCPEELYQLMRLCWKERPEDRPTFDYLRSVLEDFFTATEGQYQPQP
Description: as §1, §2

Btk, sequence (Q06187 whole entry): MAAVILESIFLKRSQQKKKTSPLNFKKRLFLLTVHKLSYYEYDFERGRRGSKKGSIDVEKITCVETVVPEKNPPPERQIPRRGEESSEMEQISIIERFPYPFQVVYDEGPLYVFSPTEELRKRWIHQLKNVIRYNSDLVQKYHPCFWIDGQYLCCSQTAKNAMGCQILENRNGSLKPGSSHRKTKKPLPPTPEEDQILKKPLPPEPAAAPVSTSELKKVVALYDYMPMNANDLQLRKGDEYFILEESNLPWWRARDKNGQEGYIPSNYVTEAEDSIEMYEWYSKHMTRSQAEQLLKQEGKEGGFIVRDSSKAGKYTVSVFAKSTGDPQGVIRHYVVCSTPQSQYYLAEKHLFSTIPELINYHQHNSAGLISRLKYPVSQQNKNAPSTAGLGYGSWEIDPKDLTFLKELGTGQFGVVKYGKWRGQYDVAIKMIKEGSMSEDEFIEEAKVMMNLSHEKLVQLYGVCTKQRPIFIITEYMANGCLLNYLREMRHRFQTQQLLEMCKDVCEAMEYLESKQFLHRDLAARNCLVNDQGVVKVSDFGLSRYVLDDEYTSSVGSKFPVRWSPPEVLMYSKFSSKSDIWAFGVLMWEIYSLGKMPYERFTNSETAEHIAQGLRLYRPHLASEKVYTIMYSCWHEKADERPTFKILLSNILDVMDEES

IC50 (Btk) | IC50 (EGFR) | IC50 (Lck) | Structure (SMILES)
100 to 1000 nM |  |  | c1ccc(Oc2ccc(Oc3ccnc4[nH]nc(NC[C@@H]5CCCNC5)c34)cc2)cc1 [compound 263, (R)-4-(4-phenoxyphenoxy)-N-(piperidin-3-ylmethyl)-1H-pyrazolo[3,4-b]pyridin-3-amine]
100 to 1000 nM |  |  | O=C(c1cccc(Oc2ccnc3[nH]nc(N[C@@H]4CCCNC4)c23)c1)N1CCOCC1 [compound 256, (R)-morpholino(3-(3-(piperidin-3-ylamino)-1H-pyrazolo[3,4-b]pyridin-4-yloxy)phenyl)methanone]
100 to 1000 nM |  |  | C=CC(=O)N1CCC[C@@H](Nc2n[nH]c3nccc(Oc4ccc(-c5nc6ncccc6o5)cc4)c23)C1 [compound 213, 1-[(3R)-3-{[4-(4-{[1,3]oxazolo[4,5-b]pyridin-2-yl}phenoxy)-1H-pyrazolo[3,4-b]pyridin-3-yl]amino}piperidin-1-yl]prop-2-en-1-one]
100 to 1000 nM |  |  | CN(C/C=C/C(=O)N1CCC[C@@H](Nc2n[nH]c3nccc(Oc4ccc(C(=O)Nc5cccc(C(F)(F)F)c5)cc4)c23)C1)C1CC1 [compound 138, 4-[(3-{[(3R)-1-[(2E)-4-[cyclopropyl(methyl)amino]but-2-enoyl]piperidin-3-yl]amino}-1H-pyrazolo[3,4-b]pyridin-4-yl)oxy]-N-[3-(trifluoromethyl)phenyl]benzamide]
100 to 1000 nM |  |  | CN(C/C=C/C(=O)N1CC[C@@H](N2C(=O)CN(c3ccc(Oc4ccccc4)cc3)c3ccnc4[nH]nc2c34)C1)C1CC1 [compound 238]
< 100 nM |  |  | C=CC(=O)N1CCC[C@@H](Nc2n[nH]c3nccc(Oc4ccc(C(=O)Nc5ncc(C(F)(F)F)s5)cc4)c23)C1 [compound 208, 4-[(3-{[(3R)-1-(prop-2-enoyl)piperidin-3-yl]amino}-1H-pyrazolo[3,4-b]pyridin-4-yl)oxy]-N-[5-(trifluoromethyl)-1,3-thiazol-2-yl]benzamide]
< 100 nM |  |  | C=CC(=O)N1CCC(Nc2n[nH]c3nccc(Oc4ccc(Oc5ccccc5)cc4)c23)CC1 [compound 265, 1-(4-(4-(4-phenoxyphenoxy)-1H-pyrazolo[3,4-b]pyridin-3-ylamino)piperidin-1-yl)prop-2-en-1-one]
100 to 1000 nM |  |  | c1ccc(Oc2ccc(Oc3ccnc4[nH]nc(NCC5CCNCC5)c34)cc2)cc1 [compound 262, 4-(4-phenoxyphenoxy)-N-(piperidin-4-ylmethyl)-1H-pyrazolo[3,4-b]pyridin-3-amine]
100 to 1000 nM |  |  | CC#CC(=O)N1CCC[C@@H](Nc2n[nH]c3nccc(Oc4ccc(C(=O)N(C)c5ncc(C)s5)cc4)c23)C1 [compound 210, 4-[(3-{[(3R)-1-(but-2-ynoyl)piperidin-3-yl]amino}-1H-pyrazolo[3,4-b]pyridin-4-yl)oxy]-N-methyl-N-(5-methyl-1,3-thiazol-2-yl)benzamide]

Continued, compound first:

Structure (SMILES) | IC50 (Btk) | IC50 (EGFR) | IC50 (Lck)
NC(=O)c1cc(Nc2n[nH]c3nccc(Oc4ccc(Oc5ccccc5)cc4)c23)ccn1 [compound 59] | 100 to 1000 nM | 100 to 1000 nM | < 100 nM
CN(C)C/C=C/C(=O)N1CC[C@@H](Oc2n[nH]c3nccc(Nc4ccc(Oc5ccccc5)cc4)c23)C1 [compound 14, (2E)-4-(dimethylamino)-1-[(3R)-3-({4-[(4-phenoxyphenyl)amino]-1H-pyrazolo[3,4-b]pyridin-3-yl}oxy)pyrrolidin-1-yl]but-2-en-1-one] | < 100 nM | < 100 nM | < 100 nM
COc1ccnc(NC(=O)c2ccc(Oc3ccnc4[nH]nc(N[C@@H]5CCN(C(=O)/C=C/CN(C)C6CC6)C5)c34)cc2)c1 [compound 58] | < 100 nM | > 10000 nM | 1000 to 10000 nM
CCC(=O)N1CC[C@@H](Nc2n[nH]c3nccc(Oc4ccc(C(=O)Nc5cc(C(F)(F)F)ccn5)cc4)c23)C1 [compound 66] | < 100 nM | 1000 to 10000 nM | 100 to 1000 nM
CNC(=O)/C(C#N)=C\c1cccc(Nc2n[nH]c3nccc(Oc4ccc(Oc5ccccc5)cc4)c23)c1 [compound 29, (2Z)-2-cyano-N-methyl-3-(3-{[4-(4-phenoxyphenoxy)-1H-pyrazolo[3,4-b]pyridin-3-yl]amino}phenyl)prop-2-enamide] | < 100 nM | < 100 nM | 100 to 1000 nM
CN(C)C/C=C/C(=O)N1CC[C@@H](Nc2n[nH]c3nccc(Oc4ccc(Oc5ccccc5)cc4S(N)(=O)=O)c23)C1 [compound 25, 2-[(3-{[(3R)-1-[(2E)-4-(dimethylamino)but-2-enoyl]pyrrolidin-3-yl]amino}-1H-pyrazolo[3,4-b]pyridin-4-yl)oxy]-5-phenoxybenzene-1-sulfonamide] | 100 to 1000 nM | 100 to 1000 nM | 100 to 1000 nM
CCOC(=O)N1CCC[C@@H](Nc2n[nH]c3nccc(Oc4ccc(C(=O)Nc5cc(C#N)ccn5)cc4)c23)C1 [compound 78, ethyl (3R)-3-[(4-{4-[(4-cyanopyridin-2-yl)carbamoyl]phenoxy}-1H-pyrazolo[3,4-b]pyridin-3-yl)amino]piperidine-1-carboxylate] | < 100 nM | 1000 to 10000 nM | 100 to 1000 nM
CN(C)C/C=C/C(=O)N1CC[C@@H](Nc2n[nH]c3nccc(O[C@H]4CCN(c5ccccc5)C4)c23)C1 [compound 24, (2E)-4-(dimethylamino)-1-[(3R)-3-[(4-{[(3S)-1-phenylpyrrolidin-3-yl]oxy}-1H-pyrazolo[3,4-b]pyridin-3-yl)amino]pyrrolidin-1-yl]but-2-en-1-one] | 100 to 1000 nM | > 10000 nM | 1000 to 10000 nM
CC(C)c1ccnc(NC(=O)c2ccc(Oc3ccnc4[nH]nc(N[C@@H]5CCN(C(=O)/C=C/CN(C)C6CC6)C5)c34)cc2)c1 [compound 61] | < 100 nM | 1000 to 10000 nM | 100 to 1000 nM
Cc1ccnc(NC(=O)c2ccc(Oc3ccnc4[nH]nc(N[C@@H]5CCCN(C(=O)C6(C)CCC6)C5)c34)cc2)c1 [compound 88, 4-[(3-{[(3R)-1-(1-methylcyclobutanecarbonyl)piperidin-3-yl]amino}-1H-pyrazolo[3,4-b]pyridin-4-yl)oxy]-N-(4-methylpyridin-2-yl)benzamide] | < 100 nM | > 10000 nM | 1000 to 10000 nM
N#Cc1ccnc(NC(=O)c2ccc(Oc3ccnc4[nH]nc(N[C@@H]5CCCN(C(=O)C6CC6)C5)c34)cc2)c1 [compound 81, N-(4-cyanopyridin-2-yl)-4-[(3-{[(3R)-1-cyclopropanecarbonylpiperidin-3-yl]amino}-1H-pyrazolo[3,4-b]pyridin-4-yl)oxy]benzamide] | < 100 nM | 1000 to 10000 nM | 100 to 1000 nM
c1ccc(Oc2ccc(Oc3ncnc4[nH]nc(N[C@@H]5CCCNC5)c34)cc2)cc1 [compound 50] | > 10000 nM | > 10000 nM | 
CO[C@H]1CC[C@@H](Nc2n[nH]c3nccc(Oc4ccc(C(=O)Nc5cc(C#N)ccn5)cc4)c23)CC1 [compound 85, N-(4-cyanopyridin-2-yl)-4-[(3-{[(1S,4S)-4-methoxycyclohexyl]amino}-1H-pyrazolo[3,4-b]pyridin-4-yl)oxy]benzamide] | < 100 nM | 100 to 1000 nM | 100 to 1000 nM
c1ccc(Oc2ccc(Oc3ccnc4[nH]nc(NC5CCOCC5)c34)cc2)cc1 [compound 47] | < 100 nM | < 100 nM | < 100 nM
CC1(C(=O)N2CCC[C@@H](Nc3n[nH]c4nccc(Oc5ccc(C(=O)Nc6cc(C(F)(F)F)ccn6)cc5)c34)C2)COC1 [compound 84, 4-[(3-{[(3R)-1-(3-methyloxetane-3-carbonyl)piperidin-3-yl]amino}-1H-pyrazolo[3,4-b]pyridin-4-yl)oxy]-N-[4-(trifluoromethyl)pyridin-2-yl]benzamide] | < 100 nM |  | 100 to 1000 nM
N#Cc1ccnc(NC(=O)c2ccc(Oc3ccnc4[nH]nc(N[C@H]5CC[C@H](O)CC5)c34)cc2)c1 [compound 82, N-(4-cyanopyridin-2-yl)-4-[(3-{[(R,4R)-4-hydroxycyclohexyl]amino}-1H-pyrazolo[3,4-b]pyridin-4-yl)oxy]benzamide] | < 100 nM |  | 100 to 1000 nM
CC1(C(=O)N2CCC[C@@H](Nc3n[nH]c4nccc(Oc5ccc(C(=O)Nc6cc(C#N)ccn6)cc5)c34)C2)COC1 [compound 83, N-(4-cyanopyridin-2-yl)-4-[(3-{[(3R)-1-(3-methyloxetane-3-carbonyl)piperidin-3-yl]amino}-1H-pyrazolo[3,4-b]pyridin-4-yl)oxy]benzamide] | < 100 nM |  | 100 to 1000 nM
C=CC(=O)N1CC[C@@H](N(C)c2n[nH]c3nccc(Oc4ccc(Cl)cc4)c23)C1 [compound 2, 1-[(3R)-3-{[4-(4-chlorophenoxy)-1H-pyrazolo[3,4-b]pyridin-3-yl](methyl)amino}pyrrolidin-1-yl]prop-2-en-1-one] | < 100 nM |  | 
